Laboratory results taken from PMC10687260, “1,3-Diphenylureido hydroxamate as a promising scaffold for generation of potent antimalarial histone deacetylase inhibitors” (Scientific Reports, 2023).

How the values were obtained:
CYP1A2 = biological target: T1, CYP1A2 (Homo sapiens, UniProt P05177); test: CYP450 inhibition in human liver microsomes, 1A2; assay type: in vitro ADME; conditions: 10 µM
T1 construct: 10 μM compound was incubated with human liver microsomes and selective marker substrates; from tissue; host or cells: human liver microsomes
T1 sequence (P05177 1-516): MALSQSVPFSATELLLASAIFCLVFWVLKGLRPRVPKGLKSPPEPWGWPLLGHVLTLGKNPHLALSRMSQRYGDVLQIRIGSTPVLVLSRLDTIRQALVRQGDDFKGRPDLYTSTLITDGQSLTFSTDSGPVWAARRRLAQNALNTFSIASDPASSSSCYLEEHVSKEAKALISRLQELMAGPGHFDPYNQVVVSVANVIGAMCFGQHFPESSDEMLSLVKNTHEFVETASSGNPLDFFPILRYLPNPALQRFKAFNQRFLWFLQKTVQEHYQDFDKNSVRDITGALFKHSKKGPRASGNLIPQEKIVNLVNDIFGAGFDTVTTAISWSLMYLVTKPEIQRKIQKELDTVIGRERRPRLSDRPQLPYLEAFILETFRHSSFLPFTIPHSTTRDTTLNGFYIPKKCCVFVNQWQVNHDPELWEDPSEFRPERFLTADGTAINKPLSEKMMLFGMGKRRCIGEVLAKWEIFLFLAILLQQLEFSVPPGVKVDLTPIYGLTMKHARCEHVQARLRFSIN

CYP450 2C9 = biological target: T2, CYP450 2C9 (Homo sapiens, UniProt P11712); test: CYP450 inhibition in human liver microsomes, 2C9; assay type: in vitro ADME; conditions: 10 µM
T2 construct: 10 μM compound was incubated with human liver microsomes and selective marker substrates; from tissue; host or cells: human liver microsomes
T2 sequence (P11712 whole entry): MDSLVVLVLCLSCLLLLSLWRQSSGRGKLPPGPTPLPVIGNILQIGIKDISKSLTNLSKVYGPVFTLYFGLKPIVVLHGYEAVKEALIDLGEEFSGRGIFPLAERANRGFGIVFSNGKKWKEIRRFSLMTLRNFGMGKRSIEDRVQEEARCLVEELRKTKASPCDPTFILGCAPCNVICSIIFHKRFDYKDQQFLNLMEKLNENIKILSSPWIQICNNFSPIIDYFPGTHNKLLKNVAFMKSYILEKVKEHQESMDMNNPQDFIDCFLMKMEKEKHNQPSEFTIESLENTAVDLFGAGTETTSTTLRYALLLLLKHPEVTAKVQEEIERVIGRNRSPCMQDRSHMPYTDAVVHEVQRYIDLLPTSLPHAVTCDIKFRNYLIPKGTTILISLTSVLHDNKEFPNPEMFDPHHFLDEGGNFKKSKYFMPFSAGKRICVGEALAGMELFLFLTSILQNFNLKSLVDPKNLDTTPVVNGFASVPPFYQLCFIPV

[1] = Stability in mouse hepatic microsomes; assay type: in vitro ADME; conditions: for half-life at 1 µM: 1 mg/mL hepatic microsomes, 1 µM compound, read-out: Half-life t1/2 Mouse; for microsomal CLint at 1 µM: read-out: Intrinsic clearance Clint Mouse
Source text: (§1) DMPK evaluation. […].

human HDAC1 = biological target: T3, human HDAC1 (Homo sapiens, UniProt Q13547); test: In vitro HDAC enzymatic assay, HDAC1; assay type: biochemical; conditions: mean ± SD
T3 construct: purchased ENZO Life Sciences AG (Lausen, CH)
T3 sequence (Q13547 whole entry): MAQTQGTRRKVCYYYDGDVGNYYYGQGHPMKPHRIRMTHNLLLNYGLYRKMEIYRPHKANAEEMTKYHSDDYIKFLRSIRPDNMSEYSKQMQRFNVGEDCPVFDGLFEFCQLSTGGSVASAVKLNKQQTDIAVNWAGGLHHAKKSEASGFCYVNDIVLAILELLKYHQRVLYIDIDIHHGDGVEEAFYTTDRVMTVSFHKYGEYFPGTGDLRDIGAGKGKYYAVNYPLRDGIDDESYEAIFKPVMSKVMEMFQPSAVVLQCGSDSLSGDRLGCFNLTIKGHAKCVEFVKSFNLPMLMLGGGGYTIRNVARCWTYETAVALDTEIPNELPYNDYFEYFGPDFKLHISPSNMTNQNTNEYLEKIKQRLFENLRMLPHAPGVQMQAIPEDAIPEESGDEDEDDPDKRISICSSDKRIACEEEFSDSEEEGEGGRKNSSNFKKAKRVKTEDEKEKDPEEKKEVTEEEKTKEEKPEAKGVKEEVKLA
Experimental: (§2) In vitro HDAC enzymatic assays. Recombinant human HDAC1 and HDAC6 were purchased from ENZO Life Sciences AG (Lausen, CH) whereas HDAC8 was produced as described before. In vitro testing of the inhibitors in an enzymatic assay was carried out as described in previous publications[32],[33]. For HDAC1 a fluorogenic peptide derived from p53 (Ac-RHKK(Acetyl)-AMC) was used. For HDAC6, the substrate (Abz-SRGGK(thio-TFA)FFRR-NH2) was used as described before.

[2] = Stability in human hepatic microsomes; assay type: in vitro ADME; conditions: for half-life at 1 µM: 1 mg/mL hepatic microsomes, 1 µM compound, read-out: Half-life t1/2 Human; for microsomal CLint at 1 µM: read-out: Intrinsic clearance Clint Human
Source text: as §1

human HDAC6 = biological target: T4, human HDAC6 (Homo sapiens, UniProt Q9UBN7); test: In vitro HDAC enzymatic assay, HDAC6; assay type: biochemical; conditions: for IC50: mean ± SD; for HDAC1/6 SI: ratio HsHDAC1 IC50/HsHDAC6 IC50
T4 construct: purchased ENZO Life Sciences AG (Lausen, CH)
T4 sequence (Q9UBN7 1-1215): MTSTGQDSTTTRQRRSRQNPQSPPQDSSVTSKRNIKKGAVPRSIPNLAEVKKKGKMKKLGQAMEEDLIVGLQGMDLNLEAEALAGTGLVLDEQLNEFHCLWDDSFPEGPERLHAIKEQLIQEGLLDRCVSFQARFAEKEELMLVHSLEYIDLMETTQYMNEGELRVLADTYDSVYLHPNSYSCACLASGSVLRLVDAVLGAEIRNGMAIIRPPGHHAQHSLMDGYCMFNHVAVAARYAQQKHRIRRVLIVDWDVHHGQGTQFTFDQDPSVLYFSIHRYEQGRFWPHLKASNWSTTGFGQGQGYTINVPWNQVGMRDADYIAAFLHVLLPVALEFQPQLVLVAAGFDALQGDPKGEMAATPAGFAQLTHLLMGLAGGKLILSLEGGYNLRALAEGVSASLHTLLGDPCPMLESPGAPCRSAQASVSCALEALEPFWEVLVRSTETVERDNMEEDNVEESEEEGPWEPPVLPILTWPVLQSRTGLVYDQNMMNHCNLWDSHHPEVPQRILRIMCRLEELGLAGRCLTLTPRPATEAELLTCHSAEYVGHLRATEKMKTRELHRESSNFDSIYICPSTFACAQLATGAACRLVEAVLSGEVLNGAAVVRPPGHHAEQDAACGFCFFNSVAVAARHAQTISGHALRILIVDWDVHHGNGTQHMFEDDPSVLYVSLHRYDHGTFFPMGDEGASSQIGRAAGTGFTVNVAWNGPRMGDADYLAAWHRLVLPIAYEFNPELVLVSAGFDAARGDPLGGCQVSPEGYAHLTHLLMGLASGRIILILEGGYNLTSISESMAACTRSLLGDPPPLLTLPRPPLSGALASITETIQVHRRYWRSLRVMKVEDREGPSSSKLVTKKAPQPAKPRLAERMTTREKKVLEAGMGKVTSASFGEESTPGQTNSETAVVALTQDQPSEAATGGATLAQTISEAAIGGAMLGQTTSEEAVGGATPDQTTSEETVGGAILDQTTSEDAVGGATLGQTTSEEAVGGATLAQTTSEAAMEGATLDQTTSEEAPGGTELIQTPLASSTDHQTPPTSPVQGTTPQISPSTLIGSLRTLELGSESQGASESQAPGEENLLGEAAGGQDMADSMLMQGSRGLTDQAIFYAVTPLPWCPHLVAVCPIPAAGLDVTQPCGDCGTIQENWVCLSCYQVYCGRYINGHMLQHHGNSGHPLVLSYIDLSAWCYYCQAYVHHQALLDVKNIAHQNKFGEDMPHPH
Experimental: as §2

Compound	CYP450% inhibition @ 10 µM 1A2 (CYP1A2)	CYP450% inhibition @ 10 µM 2C9 (CYP450 2C9)	half-life at 1 µM [1] [min]	microsomal CLint at 1 µM [1] [µL/min/mg]	IC50 (human HDAC1) [µM]	half-life at 1 µM [2] [min]	microsomal CLint at 1 µM [2] [µL/min/mg]	IC50 (human HDAC6) [µM]	HDAC1/6 SI (human HDAC6)
COc1ccc(NC(=O)Nc2ccc(/C=C/C(=O)NO)cc2)cc1 [Compound 6c, (E)-N-hydroxi-3-(4-(3-(4-methoxyphenyl)ureido)phenyl)acrylamide]	32%	18%	4.4	158	1.58 ± 0.0622	39.6	17	0.0077 ± 0.0009	206
COc1ccc(NC(=O)Nc2ccc(CCC(=O)NO)cc2)cc1 [Compound 7c, N-hydroxy-3-(4-(3-(4-methoxyphenyl)ureido)phenyl)propanamide]	22%	* (Inhibition < 10%)	4.1	169	3.56 ± 0.185	> 120	< 6	0.151 ± 0.0111	23
O=C(Nc1ccccc1)Nc1ccc(C(=O)NO)cc1 [Compound 8a, N-hydroxy-4-(3-phenylureido)bezamide]	48%	* (Inhibition < 10%)	10.1	69	5.33 ± 0.366	> 120	< 6	0.0085 ± 0.0008	627
O=C(Nc1ccc(Cl)cc1)Nc1ccc(C(=O)NO)cc1 [Compound 8b, 4-(3-(4-chlorophenyl)ureido)-N-hydroxybenzamide]	42%	* (Inhibition < 10%)	4	173	5.24 ± 0.476	66	10	0.015 ± 0.0004	349
COc1ccc(NC(=O)Nc2ccc(C(=O)NO)cc2)cc1 [Compound 8c, N-hydroxy-4-(3–4(-methoxyphenyl)ureido)benzamide]	* (Inhibition < 10%)	* (Inhibition < 10%)	2.5	281	6.18 ± 0.231	98.8	7	0.0159 ± 0.0004	–
O=C(Nc1ccc(C(=O)NO)cc1)Nc1ccc([N+](=O)[O-])cc1 [Compound 8d, N-hydroxy-4-(3-(4-nitrophenyl)ureido)benzamide]	* (Inhibition < 10%)	* (Inhibition < 10%)	13.8	50	3.74 ± 0.232	> 120	< 6	0.0134 ± 0.0005	279
